Laboratory results published in patent US20230372364A1, “METHOD OF TREATING GABA MEDIATED DISORDERS” (Eliem Therapeutics (UK) Ltd, priority 2020, published 2023).

Assays:
[1] = test system: dogs; assay: Repeat-dose toxicity up to four weeks, dogs; type: in vivo, dog; conditions: 28-day repeat dose
Protocol: The no-observed-adverse-effect-level doses were 7.5/mg/kg/day and 6 mg/kg/day in rats and dogs, respectively.
Justification for Dose—Based on the nonclinical toxicology data, there is not an unreasonable risk of adverse effects. Using the FDA guidance “Estimating the Maximum Safe Starting Dose in Initial Clinical Trials for Therapeutics in Adult Healthy Volunteers” (July, 2005), the calculated human equivalent dose would be 1/2 mg/kg/day or 3/24 mg/kg/day, respectively, based on the 28-day rat no-observed-adverse-effect-level dose of 7.5 mg/kg/day or the 28-day dog no-observed-adverse-effect-level dose of 6 mg/kg/day, respectively. For both species the no-observed-adverse-effect-level dose was the highest dose tested. For a 60 kg participant, this would result in a maximum safe starting dose of (human equivalent dose/10) of 7.2 mg/day or 19/6 mg/day. The starting doses in this Phase 1 study are 5 mg, equivalent to […] for a 60 kg participant. […] These anticipated Cmax and AUC values are ˜80- and 50-fold lower, respectively, than that observed at the no-observed-adverse-effect-level dose in dogs.

[2] = target: kappa opioid receptor (Homo sapiens, UniProt P41145); assay: Activity at the kappa opioid receptor; conditions: previously shown
kappa opioid receptor, sequence (P41145 whole entry): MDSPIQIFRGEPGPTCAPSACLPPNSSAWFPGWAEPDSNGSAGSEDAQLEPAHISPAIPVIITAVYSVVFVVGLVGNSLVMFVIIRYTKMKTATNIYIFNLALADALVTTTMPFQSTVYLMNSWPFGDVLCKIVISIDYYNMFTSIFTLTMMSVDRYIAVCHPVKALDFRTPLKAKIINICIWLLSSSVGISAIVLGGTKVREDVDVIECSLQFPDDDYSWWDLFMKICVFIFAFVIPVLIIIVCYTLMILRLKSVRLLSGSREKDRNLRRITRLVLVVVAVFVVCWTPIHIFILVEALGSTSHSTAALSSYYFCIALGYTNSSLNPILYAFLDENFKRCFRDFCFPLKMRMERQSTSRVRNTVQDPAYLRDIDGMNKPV
Text: (§1) The compound of Formula (I) is believed to have binding affinity at the GABA-gated Cl-channel, the kappa opioid receptor, the 5-HT2A receptor, and the androgen receptor. The compound of Formula (I) has previously shown activity at all 18 GABAA receptor channels and the kappa opioid receptor. The compound of Formula (I) had previously shown no activity at the 5-HT2A receptor. Activity at the androgen receptor is has not yet been well studied.

[3] = test system: human subjects; assay: Phase 1 study of safety, tolerability and pharmacokinetics in healthy volunteers (Example 1); type: in vivo; conditions: Phase 1 study participants
Text: The study is a first in-human study of ATN-10155 is designed to assess the safety, tolerability, and pharmacokinetics of ATN-10155 following administration of two phases: a single ascending dose phase and multiple ascending dose phase. The study is a randomized, double-blind study with participants in each cohort receiving active drug or matching placebo. The study evaluates the safety, tolerability, and pharmacokinetics of ATN-10155 following the single and multiple dose phases in healthy volunteers. […]
Single Ascending Dose—the Single Ascending Dose portion comprises five or more cohorts with eight participants in each cohort, 6 actively receiving ATN-10155 and 2 receiving a placebo. […] Sentinel dosing is not employed once the maximum tolerated dose is determined or if an intermediate cohort is added that that is lower than the dose of the previous cohort. […]
Safety and tolerability—A physical and neurological exam is done as part of the eligibility evaluation at screening. […] Systolic blood pressure, diastolic blood pressure, pulse, and peripheral arterial oxygen saturation (pulse oximetry) is recorded prior to every PK blood sample (including pre-dose) in the single ascending dose portion. […] If a post-menopausal female, follicle stimulating hormone levels is measured at screening. […]

[4] = Single ascending oral dose pharmacokinetics in humans; type: in vivo; conditions: human
Protocol: The pharmacokinetic properties of CV-10155 in humans were analyzed. Subjects were given a single oral dose of CV-10155, and plasma concentrations were measured at various time points. Various dosages were given to fasting subjects, and 30 mg dose was given to a subjects in a fed state.
FIG. 15 is a graph of the average plasma concentration of CV-10155 following oral administration to humans. Purple circles represent 5 mg, fasted; green diamonds represent 15 mg, fasted; red squares represent 30 mg fasted; blue triangles represent 30 mg, fed; purple crosses represent 60 mg, fasted; teal 5-pointed stars represent 90 mg, fasted; olive 6-pointed stars represent 135 mg, fasted; and brown 10-pointed stars represent 200 mg fasted.
FIG. 16 is a graph of the average plasma concentration of CV-10155 following oral administration of a 30 mg dose to humans. Blue triangles represent fasted; and red circles represent fed.
The pharmacokinetic properties of CV-10155 and Sage-217 in humans were compared. The day 7 from subjects given either 60 mg CV-10155 in the morning in a fasted state or 30 mg Sage-217 were analyzed. Results from multiple ascending dose studies are shown in Table 10, and results from single ascending dose studies are shown in Table 11.

[5] = test system: all 18 GABAA receptor channels; assay: Activity at GABAA receptor channels; conditions: previously shown
Text: as §1

With `C[C@@]1(O)CC[C@@]2(C)[C@@H](CC[C@@H]3[C@@H]2CC[C@]2(C)[C@@H](C(=O)Cn4cc(C#N)cn4)CC[C@@H]32)C1` [CV-10155, 1-[2-[(3R,5S,8R,9S,10S,13S,14S,17S)-3-hydroxy-3,10,13-trimethyl-1,2,4,5,6,7,8,9,11,12,14,15,16,17-tetradecahydrocyclopenta[a]phenanthren-17-yl]-2-oxoethyl]pyrazole-4-carbonitrile] the no-observed-adverse-effect-level dose [1] was 6 mg/kg/day, the “activity at the kappa opioid receptor” value [2] was “activity” and the serious adverse events [3] was “minimal to no serious adverse events”. The severe adverse events [3] was “minimal to no severe adverse events”, the “effect of food consumption on absorption” value ([4]; 30 mg oral, fed vs fasted) was “no clinically meaningful effect” and the Tmax ([4]; 135 mg SAD MTD) was 2.83 h. For the same compound, the Tmax ([4]; single oral dose, 5-200 mg) was 2 to 4 h, the half-life ([4]; single oral dose, 5-200 mg) was 24 to 26 h and the “inter-subject variability (CV) of AUC and Cmax” value ([4]; single oral dose, 5-200 mg) was at most 30%. The “dose proportionality of AUC and Cmax” value ([4]; single oral dose, 5-200 mg dose range) was “dose-proportional increase” and the “activity at all 18 GABAA receptor channels” value [5] was “activity”.
